Assay results published in PubChem BioAssay AID330 (DTP/NCI, 2004).
Where “and” joins values, the source holds several entries; their conditions need not be identical. Equal entries are not always repeated. Toxic doses and inconclusive results are not listed. How the source made its calls: active means survival T/C of 150% or more; inactive means T/C below 125% in these data.

Tested on: P388 leukemia ip, CD2F1 mice, survival T/C
Test: NCI In Vivo Anticancer Drug Screen. Data for tumor model P388 Leukemia (intraperitoneal) in CD2F1 (CDF1) mice
Conditions: endpoint: median survival time, higher = longer survival
Summary of the method: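 Mice carrying the transplanted tumor received test compound or vehicle. Survival was recorded in each group, and the value is the treated-group measurement divided by that of the vehicle-treated control group.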

[1] = dose: 50.0 mg/kg/injection, schedule: Q01DX009 (ip), vehicle: saline with Tween-80
[2] = dose: 100.0 mg/kg/injection, schedule: Q01DX009 (ip), vehicle: saline with Tween-80
[3] = dose: 200.0 mg/kg/injection, schedule: Q01DX009 (ip), vehicle: saline with Tween-80

Measured: T/C

Cc1cc(C)n(-c2ccc(-c3cc(=O)c4ccccc4o3)cc2)n1
inactive: dose: 50.0 mg/kg/injection, schedule: Q01DX005 (ip), vehicle: saline with Tween-80 92 % of control | dose: 100.0 mg/kg/injection, schedule: Q01DX005 (ip), vehicle: saline with Tween-80 90 % of control

O=C(NNc1ccccc1)c1ccccc1
inactive: dose: 3.13 mg/kg/injection, schedule: Q01DX009 (ip), vehicle: Klucel (hydroxypropylcellulose) (HPC) 100 % of control | dose: 6.25 mg/kg/injection, schedule: Q01DX009 (ip), vehicle: Klucel (hydroxypropylcellulose) (HPC) 98 % of control | dose: 12.5 mg/kg/injection, schedule: Q01DX009 (ip), vehicle: Klucel (hydroxypropylcellulose) (HPC) 100 % of control | dose: 25.0 mg/kg/injection, schedule: Q01DX009 (ip), vehicle: Klucel (hydroxypropylcellulose) (HPC) 100 % of control | dose: 50.0 mg/kg/injection, schedule: Q01DX009 (ip), vehicle: Klucel (hydroxypropylcellulose) (HPC) 113 % of control

COC(=O)c1nnn(Cc2ccccc2)c1Cl
inactive: dose: 50.0 mg/kg/injection, schedule: Q01DX005 (ip), vehicle: Klucel (hydroxypropylcellulose) (HPC) 98 % of control | dose: 100.0 mg/kg/injection, schedule: Q01DX005 (ip), vehicle: Klucel (hydroxypropylcellulose) (HPC) 103 % of control and 104 % of control | dose: 200.0 mg/kg/injection, schedule: Q01DX005 (ip), vehicle: Klucel (hydroxypropylcellulose) (HPC) 102 % of control and 105 % of control

COc1cc(C[C@H]2c3cc(OC)c(OC)cc3CCN2C)c(Oc2cc3c(cc2OC)-c2c(OC)c(OC)cc4c2[C@H](C3)N(C)CC4)cc1OC
inactive: dose: 2.5 mg/kg/injection, schedule: Q03HX016 (ip), vehicle: saline 90 % of control | dose: 2.5 mg/kg/injection, schedule: Q03HX024 (ip), vehicle: saline 95 % of control | dose: 5.0 mg/kg/injection, schedule: Q03HX008 (ip), vehicle: saline 91 % of control | dose: 5.0 mg/kg/injection, schedule: Q03HX016 (ip), vehicle: saline 100 % of control | dose: 5.0 mg/kg/injection, schedule: Q03HX024 (ip), vehicle: saline 95 % of control | dose: 6.25 mg/kg/injection, schedule: Q01DX009 (ip), vehicle: saline 90 % of control | dose: 10.0 mg/kg/injection, schedule: Q01DX009 (ip), vehicle: distilled water + Tween-80 96 % of control | dose: 10.0 mg/kg/injection, schedule: Q03HX008 (ip), vehicle: saline 95 % of control | dose: 10.0 mg/kg/injection, schedule: Q03HX016 (ip), vehicle: saline 100 % of control | dose: 10.0 mg/kg/injection, schedule: Q03HX024 (ip), vehicle: saline 95 % of control | dose: 12.5 mg/kg/injection, schedule: Q01DX009 (ip), vehicle: saline 104 % of control | dose: 12.5 mg/kg/injection, schedule: Q01DX009 (oral), vehicle: saline 100 % of control | dose: 20.0 mg/kg/injection, schedule: Q01DX009 (ip), vehicle: distilled water + Tween-80 92 % of control | dose: 20.0 mg/kg/injection, schedule: Q03HX008 (ip), vehicle: saline 100 % of control | dose: 20.0 mg/kg/injection, schedule: Q03HX016 (ip), vehicle: saline 100 % of control | dose: 20.0 mg/kg/injection, schedule: Q03HX024 (ip), vehicle: saline 100 % of control | dose: 25.0 mg/kg/injection, schedule: Q01DX009 (ip), vehicle: saline 109 % of control | dose: 25.0 mg/kg/injection, schedule: Q01DX009 (oral), vehicle: saline 100 % of control | dose: 25.0 mg/kg/injection, schedule: Q04DX003 (ip), vehicle: saline 100 % of control | dose: 25.0 mg/kg/injection, schedule: Q08DX002 (ip), vehicle: saline 100 % of control | dose: 40.0 mg/kg/injection, schedule: Q01DX009 (ip), vehicle: distilled water + Tween-80 92 % of control | dose: 40.0 mg/kg/injection, schedule: Q03HX008 (ip), vehicle: saline 100 % of control | dose: 40.0 mg/kg/injection, schedule: Q03HX016 (ip), vehicle: saline 109 % of control | dose: 40.0 mg/kg/injection, schedule: Q03HX024 (ip), vehicle: saline 95 % of control | dose: 50.0 mg/kg/injection, schedule: Q01DX001 (ip), vehicle: saline 91 % of control | dose: 50.0 mg/kg/injection, schedule: Q01DX009 (ip), vehicle: saline 104 % of control | dose: 50.0 mg/kg/injection, schedule: Q01DX009 (oral), vehicle: saline 100 % of control | dose: 50.0 mg/kg/injection, schedule: Q04DX003 (ip), vehicle: saline 100 % of control | dose: 50.0 mg/kg/injection, schedule: Q08DX002 (ip), vehicle: saline 100 % of control | dose: 80.0 mg/kg/injection, schedule: Q01DX009 (ip), vehicle: distilled water + Tween-80 101 % of control | dose: 80.0 mg/kg/injection, schedule: Q03HX008 (ip), vehicle: saline 100 % of control | dose: 100.0 mg/kg/injection, schedule: Q01DX001 (ip), vehicle: saline 91 % of control | dose: 100.0 mg/kg/injection, schedule: Q01DX001 (oral), vehicle: saline 104 % of control | dose: 100.0 mg/kg/injection, schedule: Q01DX009 (ip), vehicle: saline 100 % of control | dose: 100.0 mg/kg/injection, schedule: Q01DX009 (oral), vehicle: saline 100 % of control | dose: 100.0 mg/kg/injection, schedule: Q04DX003 (ip), vehicle: saline 109 % of control | dose: 100.0 mg/kg/injection, schedule: Q08DX002 (ip), vehicle: saline 100 % of control | dose: 200.0 mg/kg/injection, schedule: Q01DX001 (ip), vehicle: saline 91 % of control | dose: 200.0 mg/kg/injection, schedule: Q01DX001 (oral), vehicle: saline 95 % of control | dose: 200.0 mg/kg/injection, schedule: Q01DX009 (oral), vehicle: saline 95 % of control | dose: 200.0 mg/kg/injection, schedule: Q04DX003 (ip), vehicle: saline 109 % of control | dose: 200.0 mg/kg/injection, schedule: Q08DX002 (ip), vehicle: saline 100 % of control | dose: 400.0 mg/kg/injection, schedule: Q01DX001 (ip), vehicle: saline 91 % of control | dose: 400.0 mg/kg/injection, schedule: Q01DX001 (oral), vehicle: saline 95 % of control | dose: 400.0 mg/kg/injection, schedule: Q08DX002 (ip), vehicle: saline 100 % of control | dose: 800.0 mg/kg/injection, schedule: Q01DX001 (ip), vehicle: saline 100 % of control | dose: 800.0 mg/kg/injection, schedule: Q01DX001 (oral), vehicle: saline 95 % of control | dose: 1600.0 mg/kg/injection, schedule: Q01DX001 (oral), vehicle: saline 104 % of control

CC(C)(C)OC(=O)NCCCCC(NC(=O)OC(C)(C)C)C(=O)O (configuration not stated)
inactive: [1] 102 % of control | [2] 101 % of control | [3] 92 % of control

CC(=O)OCC(C)[C@H](C)C(=O)C1OCOC(C2CC(=O)NC(=O)C2)[C@@H]1OC(C)=O (some centres not stated)
inactive: dose: 0.01 mg/kg/injection, schedule: Q01DX009 (ip), vehicle: distilled water + alcohol 100 % of control | dose: 0.03 mg/kg/injection, schedule: Q01DX009 (ip), vehicle: distilled water + alcohol 98 % of control | dose: 0.06 mg/kg/injection, schedule: Q01DX009 (ip), vehicle: distilled water + alcohol 98 % of control | dose: 0.12 mg/kg/injection, schedule: Q01DX009 (ip), vehicle: distilled water + alcohol 100 % of control

CC(=O)OC(C)(C)/N=N/C(C)(C)OC(C)=O
inactive: dose: 25.0 mg/kg/injection, schedule: Q01DX009 (ip), vehicle: saline with Tween-80 103 % of control | [1] 101 % of control | [2] 111 % of control | [3] 100 % of control

On1cc/c(=N\N=C\c2ccc(N(CCCl)CCCl)cc2)c2ccccc21
inactive: dose: 100.0 mg/kg/injection, schedule: Q04DX003 (ip), vehicle: saline + Tween-80 + alcohol 99 % of control | dose: 200.0 mg/kg/injection, schedule: Q04DX003 (ip), vehicle: saline + Tween-80 + alcohol 106 % of control | dose: 400.0 mg/kg/injection, schedule: Q04DX003 (ip), vehicle: saline + Tween-80 + alcohol 102 % of control
